Experimental data published in patent US20260184700A1, “PDK1 REGULATORY COMPOUND AND COMPOSITION CONTAINING THE SAME” (PROVIBIO CO., LTD., priority 2024, published 2026).

Test system: T cells isolated from mouse spleen
Assay: T cell proliferation inhibition, CFSE flow cytometry, CD3/CD28 activation
Assay type: cell-based
Details: CD3/CD28 activated, 3 days; for inhibition at 0.01 µM / inhibition at 0.1 µM / inhibition at 1 µM / inhibition at 10 µM / inhibition at 30 µM / inhibition at 50 µM: Mus musculus, T-cell, 72 h, read-out: Proliferation inhibition rate (%)
Experimental: To verify the T cell proliferation inhibitory effect of the compounds according to the present invention, the following experiment was performed based on flow cytometry analysis using carboxyfluorescein diacetate succinimidyl ester (CFSE), a fluorescent dye that binds to intracellular molecules via covalent bonds.
Spleens were extracted from 7-week-old C57BL/6 mice, ground, and then separated into single cells using a strainer (40 μm pore size, SPL). Red blood cells were removed using ACK (Ammonium-Chloride-Potassium) lysis buffer to isolate white blood cells.
Finally, using a MACS Magnetic Stand and LS column, T cells were isolated from the spleen.
The T cells isolated from the spleen were resuspended in 1 mL of free medium (RPMI-1640+200 U/mL penicillin+200 μg/mL streptomycin), and 0.3 μL of CFSE (10 mM) was added. The mixture was incubated at 37° C. for 5 minutes.
Free medium (10 mL) was added to stop the reaction, and the cells were centrifuged to obtain the cell pellet.
RPMI 1640 medium containing 10% FBS, 100 U/mL penicillin, 100 μg/mL streptomycin, and resuspended the cells. The cells were then seeded into a 96-well plate at a density of 2×10^5 cells per well and activated with CD3 and CD28 antibodies (0.5 μg/mL each) to activate T cells.
The compound diluted in DMSO was added at concentrations of 10 nM, 100 nM, 1 μM, 10 μM, 30 μM, and 50 μM, with three wells per concentration, and cultured at 37° C. and 5% CO2 for three days. The cells were then analyzed using a FACS Canto instrument.
The proliferation inhibition rate (%) was calculated using the following formula: […]

Structure (SMILES): Nc1ncccc1C(=O)NCCCCCCCCCCCCN1CCC2CCCCC2C1 (centres unmarked) [Compound 16, 2-Amino-N-(12-(octahydroisoquinolin-2 (1H)-yl)dodecyl)nicotinamide]
- inhibition at 0.01 µM (compound 10 nM): 4.13%
- inhibition at 0.1 µM (compound 100 nM): -2.93%
- inhibition at 1 µM (compound 1 μM): 100%
- inhibition at 10 µM (compound 10 μM): 100%
- inhibition at 30 µM (compound 30 μM): 100%
- inhibition at 50 µM (compound 50 μM): 100%

Structure (SMILES): Nc1ncccc1C(=O)NCCCCCCCCCCCCN1CCc2ccccc2C1 [Compound 17, 2-Amino-N-(12-(3,4-dihydroisoquinolin-2(1H)-yl)dodecyl) nicotinamide]
- Proliferation inhibition rate (%) (compound 10 nM, listed as PBK-2024-004, 0.01 µM): 0.00%
- Proliferation inhibition rate (%) (compound 100 nM, listed as PBK-2024-004, 0.1 µM): −14.00%
- Proliferation inhibition rate (%) (compound 1 μM, listed as PBK-2024-004, 1 µM): 100.00%
- Proliferation inhibition rate (%) (compound 10 μM, listed as PBK-2024-004, 10 µM): 100.00%

Structure (SMILES): CC1(C)CCN(CCCCCCCCCCCCNC(=O)c2cccnc2N)C1 [Compound 22, 2-Amino-N-(12-(3,3-dimethylpyrrolidin-1-yl)dodecyl) nicotinamide]
- Proliferation inhibition rate (%) (compound 10 nM): −0.80%
- Proliferation inhibition rate (%) (compound 100 nM): 100.00%
- Proliferation inhibition rate (%) (compound 1 μM): 100.00%
- Proliferation inhibition rate (%) (compound 10 μM): 100.00%
- Proliferation inhibition rate (%) (compound 30 μM): 100.00%
- Proliferation inhibition rate (%) (compound 50 μM): 100.00%

Structure (SMILES): COC1CCN(CCCCCCCCCCCCNC(=O)c2cccnc2N)C1 (centres unmarked) [Compound 32, 2-Amino-N-(12-(3-methoxypyrrolidin-1-yl)dodecyl) nicotinamide]
- Proliferation inhibition rate (%) (compound 10 nM, listed as PBK-2024-024, 0.01 µM): 0.29%

Structure (SMILES): CN(CCCCCCCCCCCCNC(=O)c1cccnc1N)C1CCCCC1 [Compound 34, 2-Amino-N-(12-(cyclohexyl(methyl)amino)dodecyl) nicotinamide]
- Proliferation inhibition rate (%) (compound 100 nM): 100.00%
- Proliferation inhibition rate (%) (compound 1 μM): 100.00%
- Proliferation inhibition rate (%) (compound 10 μM): 100.00%
- Proliferation inhibition rate (%) (compound 30 μM): 100.00%
- Proliferation inhibition rate (%) (compound 50 μM): 100.00%

Structure (SMILES): CC1CN(CCCCCCCCCCCCNC(=O)c2cccnc2N)C(C)CN1.Cl (centres unmarked) [Compound 36, 2-Amino-N-(12-(2,5-dimethylpiperazin-1-yl)dodecyl) nicotinamide hydrochloride]
- Proliferation inhibition rate (%) (compound 100 nM): 100.00%
- Proliferation inhibition rate (%) (compound 1 μM): 100.00%
- Proliferation inhibition rate (%) (compound 10 μM): 100.00%
- Proliferation inhibition rate (%) (compound 30 μM): 100.00%
- Proliferation inhibition rate (%) (compound 50 μM): 100.00%

Structure (SMILES): C[C@H]1CNCCN1CCCCCCCCCCCCNC(=O)c1cccnc1N.Cl [Compound 37, (S)-2-Amino-N-(12-(2-methylpiperazin-1-yl)dodecyl) nicotinamide hydrochloride]
- Proliferation inhibition rate (%) (compound 1 μM): 100.00%
- Proliferation inhibition rate (%) (compound 10 μM): 100.00%
- Proliferation inhibition rate (%) (compound 30 μM): 100.00%
- Proliferation inhibition rate (%) (compound 50 μM): 100.00%

Structure (SMILES): CC1CCCN(CCCCCCCCCCCCNC(=O)c2cccnc2N)CC1 (centres unmarked) [Compound 39, 2-Amino-N-(12-(4-methylazepan-1-yl)dodecyl) nicotinamide]
- Proliferation inhibition rate (%) (compound 100 nM): 100.00%
- Proliferation inhibition rate (%) (compound 1 μM): 100.00%
- Proliferation inhibition rate (%) (compound 10 μM): 100.00%
- Proliferation inhibition rate (%) (compound 30 μM): 100.00%
- Proliferation inhibition rate (%) (compound 50 μM): 100.00%

Structure (SMILES): CC1CN(C)C(CCCCCCCCCCCCNc2ccc3cncnc3n2)N1 (centres unmarked) [Compound 43]
- Proliferation inhibition rate (%) (compound 100 nM): 100.00%
- Proliferation inhibition rate (%) (compound 1 μM): 100.00%
- Proliferation inhibition rate (%) (compound 10 μM): 100.00%
- Proliferation inhibition rate (%) (compound 30 μM): 100.00%
- Proliferation inhibition rate (%) (compound 50 μM): 100.00%

Structure (SMILES): Nc1ncccc1C(=O)NCCCCCCCCCCCCN1CCC(O)CC1 [Compound 48, 2-Amino-N-(12-(4-hydroxypiperidin-1-yl)dodecyl) nicotinamide]
- Proliferation inhibition rate (%) (compound 100 nM): 100.00%
- Proliferation inhibition rate (%) (compound 1 μM): 100.00%
- Proliferation inhibition rate (%) (compound 10 μM): 100.00%
- Proliferation inhibition rate (%) (compound 30 μM): 100.00%
- Proliferation inhibition rate (%) (compound 50 μM): 100.00%

Structure (SMILES): CN(CCCCCCCCCCCCNC(=O)c1cccnc1N)C(C)(C)C [Compound 53, 2-Amino-N-(12-(tert-butyl(methyl)amino)dodecyl) nicotinamide]
- Proliferation inhibition rate (%) (compound 100 nM): 100.00%
- Proliferation inhibition rate (%) (compound 1 μM): 100.00%
- Proliferation inhibition rate (%) (compound 10 μM): 100.00%
- Proliferation inhibition rate (%) (compound 30 μM): 100.00%
- Proliferation inhibition rate (%) (compound 50 μM): 100.00%

Structure (SMILES): Nc1ncccc1C(=O)NCCCCCCCCCCCCN1CCN(CCO)CC1 [Compound 54, 2-Amino-N-(12-(4-(2-hydroxyethyl)piperazin-1-yl)dodecyl) nicotinamide]
- Proliferation inhibition rate (%) (compound 100 nM): 100.00%
- Proliferation inhibition rate (%) (compound 1 μM): 100.00%
- Proliferation inhibition rate (%) (compound 10 μM): 100.00%
- Proliferation inhibition rate (%) (compound 30 μM): 100.00%
- Proliferation inhibition rate (%) (compound 50 μM): 100.00%

Structure (SMILES): Cl.O=C(NCCCCCCCCCCCCN1CCNCC1)c1ccc(-c2ccccc2)o1 [Compound 90, 5-Phenyl-N-(12-(piperazin-1-yl)dodecyl) furan-2-carboxamide Hydrochloride]
- Proliferation inhibition rate (%) (compound 10 μM): 100.00%
- Proliferation inhibition rate (%) (compound 30 μM): 100.00%
- Proliferation inhibition rate (%) (compound 50 μM): 100.00%

Structure (SMILES): COC1CCN(CCCCCCCCCCCCNC(=O)c2cccnc2N)CC1 [Compound 94, 2-amino-N-(12-(4-methoxypiperidin-1-yl)dodecyl) nicotinamide]
- Proliferation inhibition rate (%) (compound 100 nM): 100.00%
- Proliferation inhibition rate (%) (compound 1 μM): 100.00%
- Proliferation inhibition rate (%) (compound 10 μM): 100.00%
- Proliferation inhibition rate (%) (compound 30 μM): 100.00%
- Proliferation inhibition rate (%) (compound 50 μM): 100.00%

Structure (SMILES): Nc1ncccc1C(=O)NCCCCCCCCCCCCN1CCN(C=O)CC1 [Compound 97, 2-amino-N-(12-(4-formylpiperazin-1-yl)dodecyl) nicotinamide]
- Proliferation inhibition rate (%) (compound 1 μM): 100.00%
- Proliferation inhibition rate (%) (compound 10 μM): 100.00%
- Proliferation inhibition rate (%) (compound 30 μM): 100.00%
- Proliferation inhibition rate (%) (compound 50 μM): 100.00%

Structure (SMILES): CC(C)(C)OC(=O)NC1CCN(CCCCCCCCCCCCNC(=O)c2cccnc2N)CC1 [Compound 101, tert-Butyl (1-(12-(2-aminonicotinamido)dodecyl)piperidin-4-yl)carbamate]
- inhibition at 0.01 µM (compound 10 nM): -0.15%
- inhibition at 0.1 µM (compound 100 nM): 100%
- inhibition at 1 µM (compound 1 μM): 100%
- inhibition at 10 µM (compound 10 μM): 100%
- inhibition at 30 µM (compound 30 μM): 100%
- inhibition at 50 µM (compound 50 μM): 100%

Structure (SMILES): CC(C)N1CCN(CCCCCCCCCCCCNC(=O)c2cccnc2N)CC1 [Compound 104, 2-Amino-N-(12-(4-isopropylpiperazin-1-yl)dodecyl) nicotinamide]
- Proliferation inhibition rate (%) (compound 10 nM): 100.00%
- Proliferation inhibition rate (%) (compound 100 nM): 100.00%
- Proliferation inhibition rate (%) (compound 1 μM): 100.00%
- Proliferation inhibition rate (%) (compound 10 μM): 100.00%
- Proliferation inhibition rate (%) (compound 30 μM): 100.00%
- Proliferation inhibition rate (%) (compound 50 μM): 100.00%

Structure (SMILES): CC(C)(C)OC(=O)N1CCN(CCCCCCCCCCCCNC(=O)c2cccnc2N)CC1 [Compound 111, tert-butyl-4-(12-(2-aminonicotinamido)dodecyl) piperazine-1-carboxylate]
- Proliferation inhibition rate (%) (compound 10 nM): 0.00%
- Proliferation inhibition rate (%) (compound 100 nM): 100.00%
- Proliferation inhibition rate (%) (compound 1 μM): 100.00%
- Proliferation inhibition rate (%) (compound 10 μM): 100.00%
- Proliferation inhibition rate (%) (compound 30 μM): 100.00%
- Proliferation inhibition rate (%) (compound 50 μM): 100.00%
